Results reported in PubChem BioAssay AID1963830 (Molecular Pharmacology Branch, DTP, NCI, 2024).

Tested on: 922993-354-T-J3-PDC complex spheroid viability
Test: Anticancer human tumor 922993-354-T-J3-PDC patient-derived endometrial carcinoma cell line growth inhibition [POLQ]
Details: for IC50: curve of first compound; for viability, T/C: stronger effect = lower value
Procedure, shortened: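 Patient-derived tumour cells were co-cultured with HUVEC and mesenchymal stem cells as multicellular spheroids at 37 °C. They were treated with POLQ inhibitors (novobiocin, ART-558, RP6685) alone or combined with other agents. Top concentrations were at or near clinical Cmax (otherwise 10 microM; SN-38 at 1 microM), decreasing in half-log steps.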

[1] = second compound 0.0316 µM, first compound 0.0316 µM
[2] = second compound 0.0316 µM, first compound 0.1 µM
[3] = second compound 0.0316 µM, first compound 0.316 µM
[4] = second compound 0.0316 µM, first compound 1 µM
[5] = second compound 0.0316 µM, first compound 3.16 µM
[6] = second compound 0.0316 µM, first compound 10 µM
[7] = second compound 0.1 µM, first compound 0.0316 µM
[8] = second compound 0.1 µM, first compound 0.1 µM
[9] = second compound 0.1 µM, first compound 0.316 µM
[10] = second compound 0.1 µM, first compound 1 µM
[11] = second compound 0.1 µM, first compound 3.16 µM
[12] = second compound 0.1 µM, first compound 10 µM
[13] = second compound 0.316 µM, first compound 0.0316 µM
[14] = second compound 0.316 µM, first compound 0.1 µM
[15] = second compound 0.316 µM, first compound 0.316 µM
[16] = second compound 0.316 µM, first compound 1 µM
[17] = second compound 0.316 µM, first compound 3.16 µM
[18] = second compound 0.316 µM, first compound 10 µM
[19] = second compound 1 µM, first compound 0.0316 µM
[20] = second compound 1 µM, first compound 0.1 µM
[21] = second compound 1 µM, first compound 0.316 µM
[22] = second compound 1 µM, first compound 1 µM
[23] = second compound 1 µM, first compound 3.16 µM
[24] = second compound 1 µM, first compound 10 µM
[25] = second compound 3.16 µM, first compound 0.0316 µM
[26] = second compound 3.16 µM, first compound 0.1 µM
[27] = second compound 3.16 µM, first compound 0.316 µM
[28] = second compound 3.16 µM, first compound 1 µM
[29] = second compound 3.16 µM, first compound 3.16 µM
[30] = second compound 3.16 µM, first compound 10 µM
[31] = second compound 10 µM, first compound 0.0316 µM
[32] = second compound 10 µM, first compound 0.1 µM
[33] = second compound 10 µM, first compound 0.316 µM
[34] = second compound 10 µM, first compound 1 µM
[35] = second compound 10 µM, first compound 3.16 µM
[36] = second compound 10 µM, first compound 10 µM
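Note: spheroids exposed to the agents for one week.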
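Throughout, for viability, T/C: 100% = DMSO vehicle control wells.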

COc1cc(C2c3cc4c(cc3C(OC3OC5COC(C)OC5C(O)C3O)C3COC(=O)C23)OCO4)cc(OC)c1O (stereo unspecified) + Cc1cccc(N(C)C(=O)C2C(O)CCN2c2nc(C)cc(C(F)(F)F)c2C#N)c1
IC50 (second compound 0.0316 µM): 8070 nM | IC50 (second compound 0.1 µM): 6050 nM | IC50 (second compound 0.316 µM): 8240 nM | IC50 (second compound 1 µM): 8490 nM | IC50 (second compound 3.16 µM): 6330 nM | IC50 (second compound 10 µM): 1720 nM | viability, T/C [1]: 101% | viability, T/C [2]: 90% | viability, T/C [3]: 91.2% | viability, T/C [4]: 93.2% | viability, T/C [5]: 89.8% | viability, T/C [6]: 40.9% | viability, T/C [7]: 101% | viability, T/C [8]: 98.9% | viability, T/C [9]: 95.9% | viability, T/C [10]: 96.3% | viability, T/C [11]: 68.9% | viability, T/C [12]: 35.3% | viability, T/C [13]: 112% | viability, T/C [14]: 102% | viability, T/C [15]: 99.5% | viability, T/C [16]: 93.4% | viability, T/C [17]: 80.8% | viability, T/C [18]: 43.3% | viability, T/C [19]: 92.2% | viability, T/C [20]: 98.8% | viability, T/C [21]: 96.3% | viability, T/C [22]: 88.5% | viability, T/C [23]: 76.5% | viability, T/C [24]: 45.6% | viability, T/C [25]: 102% | viability, T/C [26]: 95.8% | viability, T/C [27]: 89.9% | viability, T/C [28]: 86% | viability, T/C [29]: 74.9% | viability, T/C [30]: 34.8% | viability, T/C [31]: 100% | viability, T/C [32]: 79.9% | viability, T/C [33]: 92.1% | viability, T/C [34]: 65.6% | viability, T/C [35]: 32.1% | viability, T/C [36]: 21.6%

COc1cccc2c1C(=O)c1c(O)c3c(c(O)c1C2=O)CC(O)(C(=O)CO)CC3OC1CC(N)C(O)C(C)O1 (stereo unspecified) + Cc1cccc(N(C)C(=O)C2C(O)CCN2c2nc(C)cc(C(F)(F)F)c2C#N)c1
IC50 (second compound 0.0316 µM): 1270 nM | IC50 (second compound 0.1 µM): 1210 nM | IC50 (second compound 0.316 µM): 947 nM | IC50 (second compound 1 µM): 1120 nM | IC50 (second compound 3.16 µM): 555 nM | IC50 (second compound 10 µM): 186 nM | viability, T/C [1]: 96.3% | viability, T/C [2]: 88% | viability, T/C [3]: 81.4% | viability, T/C [4]: 51.8% | viability, T/C [5]: 32.3% | viability, T/C [6]: 11.7% | viability, T/C [7]: 101% | viability, T/C [8]: 97.2% | viability, T/C [9]: 81.6% | viability, T/C [10]: 55.1% | viability, T/C [11]: 26.4% | viability, T/C [12]: 11.6% | viability, T/C [13]: 103% | viability, T/C [14]: 92.7% | viability, T/C [15]: 84.9% | viability, T/C [16]: 45% | viability, T/C [17]: 27.2% | viability, T/C [18]: 12.9% | viability, T/C [19]: 105% | viability, T/C [20]: 95.9% | viability, T/C [21]: 72.6% | viability, T/C [22]: 53.6% | viability, T/C [23]: 28.8% | viability, T/C [24]: 10.3% | viability, T/C [25]: 88.2% | viability, T/C [26]: 93.3% | viability, T/C [27]: 60.3% | viability, T/C [28]: 35.8% | viability, T/C [29]: 17.7% | viability, T/C [30]: 7.76% | viability, T/C [31]: 94.3% | viability, T/C [32]: 65.2% | viability, T/C [33]: 38.3% | viability, T/C [34]: 16.5% | viability, T/C [35]: 11.8% | viability, T/C [36]: 11.6%

O=c1[nH]cc(F)c(=O)[nH]1 + Cc1cccc(N(C)C(=O)C2C(O)CCN2c2nc(C)cc(C(F)(F)F)c2C#N)c1
IC50 (second compound 0.0316 µM): 2290 nM | IC50 (second compound 0.1 µM): 2130 nM | IC50 (second compound 0.316 µM): 2100 nM | IC50 (second compound 1 µM): 2280 nM | IC50 (second compound 3.16 µM): 2540 nM | IC50 (second compound 10 µM): 2490 nM | viability, T/C [1]: 102% | viability, T/C [2]: 100% | viability, T/C [3]: 93% | viability, T/C [4]: 90% | viability, T/C [5]: 34.6% | viability, T/C [6]: 16.3% | viability, T/C [7]: 89.5% | viability, T/C [8]: 95.7% | viability, T/C [9]: 97.8% | viability, T/C [10]: 94.4% | viability, T/C [11]: 26.9% | viability, T/C [12]: 17.5% | viability, T/C [13]: 108% | viability, T/C [14]: 96.1% | viability, T/C [15]: 102% | viability, T/C [16]: 86.6% | viability, T/C [17]: 29.7% | viability, T/C [18]: 14.8% | viability, T/C [19]: 103% | viability, T/C [20]: 102% | viability, T/C [21]: 98.1% | viability, T/C [22]: 97.3% | viability, T/C [23]: 31.1% | viability, T/C [24]: 15.9% | viability, T/C [25]: 103% | viability, T/C [26]: 104% | viability, T/C [27]: 101% | viability, T/C [28]: 90.5% | viability, T/C [29]: 40.6% | viability, T/C [30]: 12.1% | viability, T/C [31]: 104% | viability, T/C [32]: 98.8% | viability, T/C [33]: 111% | viability, T/C [34]: 94.6% | viability, T/C [35]: 38.3% | viability, T/C [36]: 13.5%
